Measurements: patent US11046697B2, “Compounds and compositions useful for treating disorders related to NTRK” (BLUEPRINT MEDICINES CORPORATION, priority 2015, dated 2021)
Where two headings read alike, the source gives them in different places.

Legend:
[1] = tested on: KM12 Cliff (G595R) cell line; test: NTRK G595R mutant cellular assay (CellTiter-Glo growth inhibition); format: cell-based; conditions: for IC50: 72 hr, CellTiter-Glo
Procedure, shortened: (§1)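 KM12 (TPM3-NTRK1 fusion) or KM12 Cliff (G595R) cells at 1000 cells/well in 10% FBS media were dosed with compounds at varying concentrations in duplicate after overnight plating.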

[2] = target: T1, wild type NTRK1 enzyme (Homo sapiens, UniProt P04629); test: NTRK1 Wild Type Assay at 1 mM ATP; format: biochemical
T1 construct: purchased BPS Bioscience 40280
T1 sequence (P04629 440-796 limits assumed): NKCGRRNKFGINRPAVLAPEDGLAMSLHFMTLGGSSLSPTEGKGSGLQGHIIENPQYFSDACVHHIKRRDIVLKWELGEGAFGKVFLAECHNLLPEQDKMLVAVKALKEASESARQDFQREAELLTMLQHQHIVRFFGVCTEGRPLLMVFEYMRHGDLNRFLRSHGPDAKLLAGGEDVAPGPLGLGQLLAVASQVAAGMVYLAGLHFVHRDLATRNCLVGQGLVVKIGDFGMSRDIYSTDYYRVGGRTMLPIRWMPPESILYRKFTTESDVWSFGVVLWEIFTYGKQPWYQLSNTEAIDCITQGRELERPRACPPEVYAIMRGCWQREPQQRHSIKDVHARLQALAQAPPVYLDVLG
Experimental: NTRK1 Wild Type Assay at 1 mM ATP
The reaction was stopped by the addition of 70 μL of Stop buffer (100 mM HEPES pH 7.5, 0.015% Brij 35, 35 mM EDTA and 0.2% of Coating Reagent 3 (Caliper Lifesciences)). The plate was then read on a Caliper EZReader 2 (protocol settings: −1.7 psi, upstream voltage −500, downstream voltage −3000, post sample sip 35s).

[3] = tested on: KM12 wild type colon carcinoma cell line harboring the TPM3-NTRK1 fusion protein; test: NTRK wild type cellular assay (CellTiter-Glo growth inhibition); format: cell-based; conditions: for IC50: 72 hr, CellTiter-Glo, read-out: KM12 (WT) IC50
Procedure, shortened: as §1

[4] = 1 mM ATP, read-out: Enz NTRK1 IC50

| IC50 [2, 4] | IC50 [3] | IC50 ([2]; wild-type NTRK enzyme, read-out: NTRK wt Enzyme Assay IC50) | GI50 ([3]; wild-type NTRK fusion cells, read-out: NTRK wt Cellular GI50) | IC50 ([3]; Homo sapiens, KM12, 72 h) | Structure (SMILES) | IC50 [1] | GI50 ([1]; G595R mutant NTRK fusion cells) | IC50 ([1]; Homo sapiens, KM12, 72 h) |
| --- | --- | --- | --- | --- | --- | --- | --- | --- |
| – | – | 2.3 nM | 32 nM | – | CC(C)NC(=O)C1CCC(n2c(NC(=O)c3ccc(F)cc3)nc3ccc(CN4CCC(C(C)(C)O)CC4)cc32)CC1 (stereo not drawn) [TSR-011] | – | 12000 nM | – |
| 10 to 100 nM | – | – | – | 10 to 100 nM | O=C(c1n[nH]c2ncnc(N[C@@H]3CCCC(F)(F)[C@H]3O)c12)N1C[C@@H](F)C[C@@H]1c1cncc(F)c1 [Compound 231] | – | – | 100 to 1000 nM |
| < 10 nM | < 10 nM | – | – | – | O=C(c1n[nH]c2ncnc(N[C@@H]3CCC[C@@H](O)[C@H]3O)c12)N1C[C@@H](F)C[C@@H]1c1cc(F)cc(Cl)c1 [Compound 130] | < 10 nM | – | – |
| 10 to 100 nM | 10 to 100 nM | – | – | – | CN(Cc1cc(F)ccc1OC(F)(F)F)C(=O)c1n[nH]c2ncnc(NC3COCC(O)C3O)c12 (stereo not drawn) [Compound 228] | 10 to 100 nM | – | – |
| < 10 nM | < 10 nM | – | – | – | O=C(c1n[nH]c2ncnc(N[C@H]3[C@H](O)[C@H](O)[C@@H]4C[C@@H]43)c12)N1C[C@@H](F)C[C@@H]1c1cc(F)ccc1OC(F)F [Compound 239] | 10 to 100 nM | – | – |
| 100 to 1000 nM | – | – | – | 100 to 1000 nM | CN(Cc1cncc(F)c1)C(=O)c1n[nH]c2ncnc(N[C@@H]3CC[C@@H](O)[C@H]3O)c12 [Compound 5] | – | – | 100 to 1000 nM |

Further lines, the compound ahead of its results:

| Structure (SMILES) | IC50 [2, 4] | IC50 [3] | IC50 ([2]; wild-type NTRK enzyme, read-out: NTRK wt Enzyme Assay IC50) | GI50 ([3]; wild-type NTRK fusion cells, read-out: NTRK wt Cellular GI50) | IC50 ([3]; Homo sapiens, KM12, 72 h) | IC50 [1] | GI50 ([1]; G595R mutant NTRK fusion cells) | IC50 ([1]; Homo sapiens, KM12, 72 h) |
| --- | --- | --- | --- | --- | --- | --- | --- | --- |
| CN(Cc1cc(F)cnc1Cl)C(=O)c1n[nH]c2ncnc(NC3COCCC3O)c12 (stereo not drawn) [Compound 149] | < 10 nM | 10 to 100 nM | – | – | – | 10 to 100 nM | – | – |
| O=C(c1n[nH]c2ncnc(NC3CCCC(O)C3O)c12)N1CC(F)CC1c1cc(F)ccc1Cl (stereo not drawn) [Compound 217] | < 10 nM | < 10 nM | – | – | – | < 10 nM | – | – |
| O=C(NCc1cc(F)ccc1F)c1n[nH]c2ncnc(N[C@@H]3C[C@@H](F)C[C@H]3O)c12 (relative stereo) [Compound 17] | 10 to 100 nM | – | – | – | 10 to 100 nM | – | – | 100 to 1000 nM |
| O=C(c1n[nH]c2ncnc(N[C@@H]3CCOC[C@H]3O)c12)N1C[C@@H](F)C[C@@H]1c1cc(F)ccc1Cl [Compound 196] | < 10 nM | – | – | – | < 10 nM | – | – | < 10 nM |
| O=C(c1n[nH]c2ncnc(N[C@H]3[C@H](O)[C@H](O)[C@@H]4C[C@@H]43)c12)N1C[C@@H](F)C[C@@H]1c1cc(F)cc(Cl)c1 [Compound 214] | < 10 nM | – | – | – | < 10 nM | – | – | < 10 nM |
| C[C@@H](NC(=O)c1n[nH]c2ncnc(N[C@@H]3COCC[C@H]3O)c12)c1cc(F)ccc1F [Compound 30] | 100 to 1000 nM | – | – | – | 10 to 100 nM | – | – | 100 to 1000 nM |
| O=C(NCc1cc(F)ccc1F)c1n[nH]c2ncnc(NC3CCC(O)C3O)c12 (stereo not drawn) [Compound 9] | 10 to 100 nM | 10 to 100 nM | – | – | – | 100 to 1000 nM | – | – |
| O=C(c1n[nH]c2ncnc(N[C@@H]3C=C[C@@H](O)[C@H]3O)c12)N1C[C@@H](F)C[C@@H]1c1cccc(F)c1F [Compound 172] | < 10 nM | 10 to 100 nM | – | – | – | 10 to 100 nM | – | – |
| O=C(c1n[nH]c2ncnc(NC3CCOCC3O)c12)N1CC(F)CC1c1cc(F)ccc1OC(F)(F)F (stereo not drawn) [Compound 241] | < 10 nM | < 10 nM | – | – | – | < 10 nM | – | – |
| COc1ccc(F)cc1CNC(=O)c1n[nH]c2ncnc(N[C@@H]3COCC[C@H]3O)c12 [Compound 24] | 10 to 100 nM | – | – | – | 100 to 1000 nM | – | – | 100 to 1000 nM |
